Values after ≈ are worked out from the molar mass of the structure shown. Values joined by “and” are separate entries in the source; they are usually repeats but may differ in a detail not shown here. Identical values can stand only once.
Assays:
S. aureus ATCC 43300 = assay: MIC/MBC broth microdilution, S. aureus; type: cell-based, Staphylococcus aureus; settings: S. aureus
S. pyogenes ATCC 19615 = assay: MIC/MBC broth microdilution, S. pyogenes; type: cell-based, Streptococcus pyogenes; settings: S. pyogenes
Method in brief: (§1)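 Broth microdilution per NCCLS in BHI, ~10^5 CFU/mL inoculum, serially diluted peptidomimetics (stock 1024 μg/mL in water with 5–10% ethanol or DMSO), 18 h at 37 °C. MIC: lowest concentration with no obvious growth (≥90% of untreated); MBC: ≤3 colonies, ≥99.9% kill.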

S. cohnii c.i. = assay: MIC/MBC broth microdilution, S. cohnii; type: cell-based, Staphylococcus cohnii
Method in brief: as §1

E. faecalis c.i. = assay: MIC/MBC broth microdilution, E. faecalis; type: cell-based, Enterococcus faecalis
Method in brief: as §1

S. schleiferi c.i. = assay: MIC/MBC broth microdilution, S. schleiferi; type: cell-based, Staphylococcus schleiferi
Method in brief: as §1

S. agalactiae ATCC 27956 = assay: MIC/MBC broth microdilution, S. agalactiae; type: cell-based, Streptococcus agalactiae; settings: S. agalactiae
Method in brief: as §1

S. mutans c.i. = assay: MIC/MBC broth microdilution, S. mutans; type: cell-based, Streptococcus mutans
Method in brief: as §1

E. coli ATCC 25922 = assay: MIC/MBC broth microdilution, E. coli; type: cell-based, Escherichia coli
Method in brief: as §1

P. vulgaris ATCC 6896 = assay: MIC/MBC broth microdilution, P. vulgaris; type: cell-based, Proteus vulgaris
Method in brief: as §1

[1] = test system: K. pneumoniae ATCC 700603; assay: MIC/MBC broth microdilution, K. pneumoniae; type: cell-based
Method in brief: as §1

P. aeruginosa ATCC 10145 = assay: MIC/MBC broth microdilution, P. aeruginosa; type: cell-based
Method in brief: as §1

[2] = Hydrophobicity by reverse-phase chromatography; type: physicochemical; settings: acetonitrile content in the mobile phase at the retention time
Source text: Reverse-phase chromatography was employed to assess the hydrophobicity characteristics of the peptidomimetics. Hydrophobicity was quantified by determining the acetonitrile content in the mobile phase at the retention time of a peptidyl derivative (Table S2). The least hydrophobic compound (40% acetonitrile) was A-198, which aligns with the calculations of hydrophobicity by SwissADME and pkCSM (Table ). Next in the hydrophobicity sequence were A-197, A-220, A-219, A-174, and A-221, eluting with 42.5-43.9% of acetonitrile. Then there were followed by […], and A-179, with the acetonitrile percentage of 44.8-49.8. The compounds A-176, A-20, A-152, A-134, and A-210 needed over 50% of acetonitrile to be eluted from the column.

[3] = test system: immortalized human keratinocytes (HaCaT); assay: LDH cytotoxicity test, keratinocytes; type: cell-based
Method in brief: (§2)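 HaCaT keratinocytes and 46BR.1N fibroblasts, 5000 cells per well, grown 24 h, then exposed to peptidomimetics at 50, 100 and 150 μg/mL in serum-free medium for 48 h. LDH release in supernatant read at 450 nm, normalized to untreated (0%) and 1% Triton X-100 (maximal) controls.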

fibroblasts (46BR.1N) = assay: LDH cytotoxicity test, fibroblasts; type: cell-based
Method in brief: as §2

[4] = test system: immortalized human HaCaT keratinocytes; assay: XTT cell proliferation assay, keratinocytes; type: cell-based; settings: for effect on proliferation, in words: 48 and 72 h, 0.01–150 μg/mL
Method in brief: (§3)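 Cells at 37 °C, 5% CO2 received peptidomimetics in serum-free HG-DMEM for 48 or 72 h; for 72 h, half the medium was renewed and peptide re-added at 48 h. XTT reagent was then incubated 4 h and absorbance read at 490 nm; Mann–Whitney U test, p ≤ 0.05.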

[5] = test system: human dermal fibroblast cell line (46BR.1N); assay: XTT cell proliferation assay, fibroblasts; type: cell-based; settings: for effect on proliferation, in words: 48 and 72 h, 0.01–150 μg/mL
Method in brief: as §3

S. intemrdius c.i. = assay: MIC/MBC broth microdilution, S. intermedius; type: cell-based, Staphylococcus intermedius
Method in brief: as §1

[6] = 48 h, 50, 100 and 150 μg/mL, vs 1% Triton X-100
[7] = A-196 0.01–10 μg/mL, A-219 above 0.1 μg/mL, A-213 lower concentrations

Question: Which MIC (S. aureus ATCC 43300; H2O) does the source give for `C=CCC(=O)NC[C@@H](NC(=O)[C@H](CC(C)C)NC(=O)[C@H](CCCNC(=N)N)NC(=O)OCc1ccccc1)C(C)C` [Compound A-209] here?
Answer: > 512 µg/mL

Question: And the MIC (S. aureus ATCC 43300; water additive DMSO)?
Answer: > 512 µg/mL

Question: What about the MIC (S. aureus ATCC 43300; water additive EtOH) of the same molecule?
Answer: > 512 µg/mL

Question: And the MIC (S. pyogenes ATCC 19615; H2O)?
Answer: > 512 µg/mL

Question: What about the MIC (S. pyogenes ATCC 19615; water additive DMSO) of the same molecule?
Answer: > 512 µg/mL

Question: What about the MIC (S. pyogenes ATCC 19615; water additive EtOH) of the same molecule?
Answer: > 512 µg/mL

Question: What about the MIC (S. cohnii c.i.; H2O) of the same molecule?
Answer: > 512 µg/mL

Question: What about the MIC (S. cohnii c.i.; water additive DMSO) of the same molecule?
Answer: > 512 µg/mL

Question: And the MIC (S. cohnii c.i.; water additive EtOH)?
Answer: > 512 µg/mL

Question: And the MIC (E. faecalis c.i.; H2O)?
Answer: > 512 µg/mL

Question: And the MIC (E. faecalis c.i.; water additive DMSO)?
Answer: > 512 µg/mL

Question: What about the MIC (E. faecalis c.i.; water additive EtOH) of the same molecule?
Answer: > 512 µg/mL

Question: What about the MBC (S. schleiferi c.i.; H2O) of the same molecule?
Answer: 512 µg/mL (≈ 892 µM)

Question: What about the MIC (S. schleiferi c.i.; H2O) of the same molecule?
Answer: 256 µg/mL (≈ 446 µM)

Question: And the MBC (S. schleiferi c.i.; water additive DMSO)?
Answer: 512 µg/mL (≈ 892 µM)

Question: And the MIC (S. schleiferi c.i.; water additive DMSO)?
Answer: 256 µg/mL (≈ 446 µM)

Question: And the MBC (S. schleiferi c.i.; water additive EtOH)?
Answer: 512 µg/mL (≈ 892 µM)

Question: What about the MIC (S. schleiferi c.i.; water additive EtOH) of the same molecule?
Answer: 256 µg/mL (≈ 446 µM)

Question: And the MIC (S. agalactiae ATCC 27956; H2O)?
Answer: > 512 µg/mL

Question: What about the MIC (S. agalactiae ATCC 27956; water additive DMSO) of the same molecule?
Answer: > 512 µg/mL

Question: What about the MIC (S. agalactiae ATCC 27956; water additive EtOH) of the same molecule?
Answer: > 512 µg/mL

Question: And the MBC (S. mutans c.i.; H2O)?
Answer: 256 µg/mL (≈ 446 µM)

Question: And the MBC (S. mutans c.i.; water additive DMSO)?
Answer: 256 µg/mL (≈ 446 µM)

Question: And the MBC (S. mutans c.i.; water additive EtOH)?
Answer: 256 µg/mL (≈ 446 µM)

Question: What about the MIC (E. coli ATCC 25922; H2O) of the same molecule?
Answer: > 512 µg/mL

Question: What about the MIC (E. coli ATCC 25922; water additive DMSO) of the same molecule?
Answer: > 512 µg/mL

Question: And the MIC (E. coli ATCC 25922; water additive EtOH)?
Answer: > 512 µg/mL

Question: And the MIC (P. vulgaris ATCC 6896; H2O)?
Answer: > 512 µg/mL

Question: What about the MIC (P. vulgaris ATCC 6896; water additive DMSO) of the same molecule?
Answer: > 512 µg/mL

Question: And the MIC (P. vulgaris ATCC 6896; water additive EtOH)?
Answer: > 512 µg/mL

Question: What about the MIC ([1]; H2O) of the same molecule?
Answer: > 512 µg/mL

Question: What about the MIC ([1]; water additive DMSO) of the same molecule?
Answer: > 512 µg/mL

Question: What about the MIC ([1]; water additive EtOH) of the same molecule?
Answer: > 512 µg/mL

Question: What about the MIC (P. aeruginosa ATCC 10145; H2O) of the same molecule?
Answer: > 512 µg/mL

Question: What about the MIC (P. aeruginosa ATCC 10145; water additive DMSO) of the same molecule?
Answer: > 512 µg/mL

Question: And the MIC (P. aeruginosa ATCC 10145; water additive EtOH)?
Answer: > 512 µg/mL

Question: And the “% AcCN (acetonitrile required for elution from the column)” value [2]?
Answer: 49.6% and 44.8–49.8%

Question: What about the “cytotoxicity (LDH)” value [3, 6] of the same molecule?
Answer: 10–15%

Question: And the “concentration at which cytotoxic effect starts” value ([3]; LDH, 48 h)?
Answer: > 150 µg/mL and 150 µg/mL

Question: What about the “cytotoxicity (LDH)” value (fibroblasts (46BR.1N); [6]) of the same molecule?
Answer: 10–15%

Question: What about the “concentration at which cytotoxic effect starts” value (fibroblasts (46BR.1N); LDH, 48 h) of the same molecule?
Answer: > 150 µg/mL and 150 µg/mL

Question: What about the “effect on proliferation, in words” value ([4]; XTT) of the same molecule?
Answer: did not exert any negative impact

Question: What about the “effect on proliferation, in words” value ([5]; XTT) of the same molecule?
Answer: did not exert any negative impact

Question: What does the source list for `CC[C@@H](CNC(=O)/C=C/c1ccccc1)NC(=O)[C@H](CC(C)C)NC(=O)[C@H](CCCNC(=N)N)NC(=O)OCc1ccccc1` [Compound A-213]?
Answer: MBC (E. faecalis c.i.; H2O): 256 µg/mL (≈ 412 µM); MIC (E. faecalis c.i.; H2O): 256 µg/mL (≈ 412 µM); MBC (E. faecalis c.i.; water additive DMSO): 256 µg/mL (≈ 412 µM); MIC (E. faecalis c.i.; water additive DMSO): 256 µg/mL (≈ 412 µM); MBC (E. faecalis c.i.; water additive EtOH): 256 µg/mL (≈ 412 µM); MIC (E. faecalis c.i.; water additive EtOH): 256 µg/mL (≈ 412 µM); MBC (S. schleiferi c.i.; H2O): 32 µg/mL (≈ 51.5 µM); MIC (S. schleiferi c.i.; H2O): 32 µg/mL (≈ 51.5 µM); MBC (S. schleiferi c.i.; water additive DMSO): 32 µg/mL (≈ 51.5 µM); MIC (S. schleiferi c.i.; water additive DMSO): 16 µg/mL (≈ 25.7 µM); MBC (S. schleiferi c.i.; water additive EtOH): 32 µg/mL (≈ 51.5 µM); MIC (S. schleiferi c.i.; water additive EtOH): 32 µg/mL (≈ 51.5 µM); MIC (S. intemrdius c.i.; H2O): 32 µg/mL (≈ 51.5 µM); MIC (S. intemrdius c.i.; water additive DMSO): 32 µg/mL (≈ 51.5 µM); MIC (S. intemrdius c.i.; water additive EtOH): 32 µg/mL (≈ 51.5 µM); MBC (S. mutans c.i.; H2O): 8 µg/mL (≈ 12.9 µM); MIC (S. mutans c.i.; H2O): 4 µg/mL (≈ 6.43 µM); MBC (S. mutans c.i.; water additive DMSO): 8 µg/mL (≈ 12.9 µM); MIC (S. mutans c.i.; water additive DMSO): 4 µg/mL (≈ 6.43 µM); MBC (S. mutans c.i.; water additive EtOH): 8 µg/mL (≈ 12.9 µM); MIC (S. mutans c.i.; water additive EtOH): 4 µg/mL (≈ 6.43 µM); MBC (E. coli ATCC 25922; H2O): 256 µg/mL (≈ 412 µM); MIC (E. coli ATCC 25922; H2O): 256 µg/mL (≈ 412 µM); MBC (E. coli ATCC 25922; water additive DMSO): 512 µg/mL (≈ 823 µM); MIC (E. coli ATCC 25922; water additive DMSO): 256 µg/mL (≈ 412 µM); MBC (E. coli ATCC 25922; water additive EtOH): 256 µg/mL (≈ 412 µM); MIC (E. coli ATCC 25922; water additive EtOH): 256 µg/mL (≈ 412 µM); MIC (P. vulgaris ATCC 6896; H2O): > 512 µg/mL; MIC (P. vulgaris ATCC 6896; water additive DMSO): > 512 µg/mL; MIC (P. vulgaris ATCC 6896; water additive EtOH): > 512 µg/mL; MIC ([1]; H2O): > 512 µg/mL; MIC ([1]; water additive DMSO): 512 µg/mL (≈ 823 µM); MIC ([1]; water additive EtOH): 512 µg/mL (≈ 823 µM); MIC (P. aeruginosa ATCC 10145; H2O): 512 µg/mL (≈ 823 µM); MBC (P. aeruginosa ATCC 10145; water additive DMSO): 512 µg/mL (≈ 823 µM); MIC (P. aeruginosa ATCC 10145; water additive DMSO): 256 µg/mL (≈ 412 µM); MBC (P. aeruginosa ATCC 10145; water additive EtOH): 256 µg/mL (≈ 412 µM); MIC (P. aeruginosa ATCC 10145; water additive EtOH): 256 µg/mL (≈ 412 µM); % AcCN (acetonitrile required for elution from the column) [2]: 54.6%; cytotoxicity (LDH) at 150 μg/mL ([3]; 48 h, 150 μg/mL): ~10%; cytotoxicity (LDH) at 150 μg/mL (fibroblasts (46BR.1N); 48 h, 150 μg/mL): ~10%; pro-proliferative effect above control [4, 7]: 20–30%; proliferation relative to control at 150 μg/mL (highest tested concentration) ([4]; XTT, 150 μg/mL): around 25%; effect on proliferation, in words ([4]; XTT): pro-proliferating effect at lower concentrations followed by an antiproliferative effect at higher concentrations; pro-proliferative effect above control [5, 7]: 20–30%; proliferation relative to control at 150 μg/mL (highest tested concentration) ([5]; XTT, 150 μg/mL): around 25%; effect on proliferation, in words ([5]; XTT): pro-proliferating effect at lower concentrations followed by an antiproliferative effect at higher concentrations
